Results on 7 compounds are retold here after patent publication US8552057B2, “Phytoestrogenic formulations for alleviation or prevention of neurodegenerative diseases” (priority 2006, dated 2013).

Where two headings read alike, the source gives them in different places.

One may read the IC50 as the concentration that gives 50% inhibition.

One data set addresses human ERβ (Homo sapiens (Human), UniProt Q92731). Nature of the data set: Fluorescence polarization competitive binding assay, ERβ. Conditions: for ERβ RBA (%): percent of the binding affinity of 17β-estradiol (RBA = 100%).
Another data set deals with human ERα (Homo sapiens (Human), UniProt P03372). The data set is described as follows: Fluorescence polarization competitive binding assay, ERα. Conditions: for ERα RBA (%): percent of the binding affinity of 17β-estradiol (RBA = 100%).
For data set [1], the system named is primary hippocampal neurons. The data set is described as follows: Glutamate-induced neurotoxicity, LDH release. The note with it: for LDH Release (% of Control): 48 h pretreatment, 5-min glutamate, LDH 24 h later; for concentration that elicited the maximal neuroprotective effects: from the dose-response analyses, administered alone. On the technique in general: Release of lactate dehydrogenase indicates damage to the cell membrane.

Data set [2] relates to adult ovariectomized rats. The data set is described as follows: Uterine weight in adult ovariectomized rats. Conditions: 6 mg/kg BW.
Data set [3] relates to adult ovariectomized rats. The note with it: rat, in vivo.
Setting [4] is: 2 subcutaneous injections once daily, 24 h after 2nd injection.
The mark [5] stands for this setting: compared with vehicle-treated control (set as 0).

Regarding `O=c1c(-c2ccc(O)cc2)coc2cc(O)ccc12` [Daidzein, daidzein], the “ERβ RBA (%)” value at human ERβ was 1.867%. The “ERα RBA (%)” value on human ERα amounted to 0.0949%. The “LDH Release (% of Control)” value is 338.39 ± 16.49 % of Control in data set [1] (1 nM); 333.98 ± 9.10 % of Control in data set [1] (10 nM); 301.42 ± 7.70 % of Control in data set [1] (100 nM); 318.49 ± 15.92 % of Control in data set [1] (1 μM); 325.41 ± 26.12 % of Control in data set [1] (10 μM). The “concentration that elicited the maximal neuroprotective effects” value in data set [1] turned out to be 100 nM.
In the case of `Oc1ccc([C@H]2COc3cc(O)ccc3C2)cc1` [Equol, equol], the “Selectivity (β/α)” value at human ERβ (Table 2) came to 10.09. Also, the IC50 is 582 nM on human ERβ (Table 2, full-length human ERβ, read-out: ERβ IC50) and 5880 nM on human ERα. Further, the “ERβ RBA (%)” value at human ERβ stood at 5.571%. Further, at human ERα, the “ERα RBA (%)” value amounted to 0.4306%. Besides, the “LDH Release (% of Control)” value is reported as 453.50 ± 23.37 % of Control in data set [1] (1 nM); 403.78 ± 17.02 % of Control in data set [1] (10 nM); 331.59 ± 9.67 % of Control in data set [1] (100 nM); 381.80 ± 12.01 % of Control in data set [1] (1 μM); 390.21 ± 9.40 % of Control in data set [1] (10 μM). The “concentration that elicited the maximal neuroprotective effects” value in data set [1] was found to be 100 nM.
Consider `CC(=O)[C@H]1CC[C@H]2[C@@H]3CCC4=CC(=O)CC[C@]4(C)[C@H]3CC[C@]12C` [Progesteron, progesterone, reference compound], for which the “binding to ERβ” value at human ERβ is recorded as “does not bind”. Moreover, the “binding to ERα” value at human ERα is listed as “does not bind”.
For the compound `O=c1c(-c2ccc(O)cc2)coc2cc(O)cc(O)c12` [genistein], the “Uterine Dry Weight” value in data set [2] (setting [4]) was found to be 28.14 ± 2.04 mg. The “Uterine Wet Weight” value in data set [2] (setting [4]) came to 144.11 ± 10.18 mg. Also, the “Uterine Dry Weight Increase (%)” value in data set [2] (setting [5]) is given as 6.49 ± 7.71%. For the same compound, the “Uterine Wet Weight Increase (%)” value in data set [2] (setting [5]) worked out at 12.92 ± 7.97%. Also, the “LDH Release (% of Control)” value is recorded as 361.03 ± 7.71 % of Control in data set [1] (1 nM); 350.02 ± 8.21 % of Control in data set [1] (10 nM); 347.24 ± 16.96 % of Control in data set [1] (100 nM); 356.79 ± 11.15 % of Control in data set [1] (1 μM); 377.84 ± 8.45 % of Control in data set [1] (10 μM). The “concentration that elicited the maximal neuroprotective effects” value in data set [1] stood at 100 nM.
As for `O=c1nc2n(c3cc4ccccc4cc13)Cc1ccccc1-2` [Compd 12], on human ERβ, the “binding to ERβ” value is “either very weak or no binding”.
As for `C[C@]12CC[C@@H]3c4ccc(O)cc4CC[C@H]3[C@@H]1CC[C@@H]2O` [17β-Estradiol], the “impact on uterine weight” value in data set [3] is “markedly increased”.
As for `O=C1Oc2cc(O)cc(Cc3ccccc3)c2CC1c1ccc(Cl)cc1` (stereo not shown) [Compd 3], the IC50 on human ERβ (Table 1, read-out: IC50 ERβ) came out at 250 nM.
